Broadly, the melting point is the temperature of the solid-liquid transition.

The values that follow come from patent US6423376B1, “Tartaric acid diesters as biodegradable surfactants” (Air Products and Chemicals, Inc., priority 2000, dated 2002).

Series [1] can be described thus: Solubility limit in water from surface tension/ln concentration curve. The note with it: in distilled water. In kind it is physicochemical. On the procedure: (§1) Solutions of the materials of Examples 1-12 in distilled water were prepared. […] The pC20 value is defined as the negative logarithm of the molar concentration of surfactant required to decrease the surface tension of an aqueous solution to 52.1 dyne/cm, that is, 20 dyne/cm below that of pure water when the measurement is performed at 0.1 b/s. This value is a measure of the efficiency of a surfactant. […] In addition, the relative efficiency of surfactants can be obtained by comparing surface tension reduction of solutions containing the same amount of different surfactants. Such data is given for 0.1 wt % solutions of the tartrates at 1.0 and 6.0 bubbles/second (b/s). The solubility limit was determined by intersection of the linear portion of a surface tension/In concentration curve with the limiting surface tension as is described in many textbooks. The limiting surface tensions at 0.1, 1, 6 and 20 b/s represent the lowest surface tensions in water which can be achieved at the given surface creation rates for a given surfactant regardless of the amount of surfactant used and is used to evaluate the effectiveness of a surfactant. These values give information about the relative ability to a surfactant to reduce surface defects under near-equilibrium conditions (0.1 b/s) through very dynamic conditions (20 b/s). Lower surface tensions would allow the elimination of defects upon application of a formulation onto lower energy surfaces.

Series [2] in a line: Dynamic surface tension of aqueous solutions, maximum bubble pressure method. In kind it is physicochemical.
Source text: where R1 and R2 are independently a C4 to C6 alkyl group, but preferably are the same; provided that when the water-based composition is an ink, R1 and R2 are independently a C5 or C6 alkyl group. […] The maximum-bubble-pressure method of measuring surface tension is described in Langmuir 1986, 2, 428-432, which is incorporated by reference.
In the following Examples dynamic surface tension data were obtained for aqueous solutions of various compounds using the maximum bubble pressure method at bubble rates from 0.1 bubbles/second (b/s) to 20 b/s. […] In practical terms, high bubble rates correspond to high printing speeds in lithographic printing, high spray or roller velocities in coating applications, and rapid application rates for agricultural products.
Dynamic surface tension data were obtained for a 0.1 wt % aqueous solution of the 9.5 mole ethoxylate of nonylphenol using the maximum bubble pressure method at bubble rates from 0.1 bubbles/second (b/s) to 20 b/s.
as §1

The nature of series [3]: Foam test based upon ASTM D 1173-53. In kind it is physicochemical. The note with it: 0.1 wt % solution. From the text:
The foaming properties of a 0.1 wt % solution of the comparative example (nonylphenol 9.5 mole ethoxylate) and various dialkyltartrates (diisopropyl-(D)-tartrate, dibutyl-L-tartrate. diisobutyl-DL-tartrate, di-sec-butyl-DL-tartrate, dipentyl-DL-tartrate, diisoamyl-DL-tartrate, di-(2-methyl-butyl)-DL-tartrate, dineopentyl-DL-tartrate, dihexyl-DL-tartrate, di-(4-methyl-2-pentyl)-DL-tartrate, dibenzyl-DL-tartrate and di-(2-ethyl-hexyl)-DL-tartrate) were examined using a procedure based upon ASTM D 1173-53. In this test, a 0.1 wt % solution of the surfactant is added from an elevated foam pipette to a foam receiver containing the same solution. The foam height is measured at the completion of the addition (“Initial Foam Height”) and the time required for the foam to dissipate at the air-liquid interface (“Time to 0 Foam”) is recorded. This test provides a comparison between the foaming characteristics of various surfactants. In general, in coatings, inks, adhesives and agricultural formulations, foam is undesirable because is complicates handling and can lead to coating and print defects, and to inefficient application of agricultural materials.

Counter-ions that a name gives are not always drawn.

On to `CC(C)(C)COC(=O)C(O)C(O)C(=O)OCC(C)(C)C` (racemic) (as salt: tartrate) [Example 8, Dineopentyl-DL-tartrate], for which the melting point was 75 °C.

With `CCCCC(CC)COC(=O)C(O)C(O)C(=O)OCC(CC)CCCC` (racemic) [Example 12, Di(2-ethylhexyl)-DL-tartrate], the solubility limit in series [1] is given as 0.06 Weight %. Moreover, in series [2] (0.1 wt % solution, 1 b/s), the “γ (0.1 wt % solution) (1 b/s)” value is recorded as 69.8 Dyne/cm. For the same compound, in series [2] (0.1 wt % solution, 6 b/s), the “γ (0.1 wt % solution) (6 b/s)” value worked out at 70.5 Dyne/cm. Moreover, the “limiting γ (0.1 b/s) at 5 wt. %” value in series [2] (5 wt. %, cloudy mixture, 0.1 b/s) came out at 38.5 dyne/cm. The “limiting γ (1 b/s) at 5 wt. %” value in series [2] (5 wt. %, cloudy mixture, 1 b/s) is recorded as 40.3 dyne/cm. Besides, the “limiting γ (6.0 b/s) at 5 wt. %” value in series [2] (5 wt. %, cloudy mixture, 6.0 b/s) was 41.2 dyne/cm. Moreover, the “limiting γ (20 b/s) at 5 wt. %” value in series [2] (5 wt. %, cloudy mixture, 20 b/s) was found to be 44.8 dyne/cm. Further, the “limiting γ (0.1 b/s)” value in series [2] (lowest surface tension in water, 0.1 b/s) was found to be 66.7 Dyne/cm. The “limiting γ (1 b/s)” value in series [2] (lowest surface tension in water, 1 b/s) turned out to be 69.8 Dyne/cm. The “limiting γ (6 b/s)” value in series [2] (lowest surface tension in water, 6 b/s) was 70.5 Dyne/cm. The “limiting γ (20 b/s)” value in series [2] (lowest surface tension in water, 20 b/s) was determined as 71.3 Dyne/cm. In series [2] (negative logarithm of molar concentration giving 52.1 dyne/cm at 0.1 b/s), this compound had a pC20 of 1.6. Further, the initial foam in series [3] is 0 cm. In series [3] (unit not given), the “time to zero foam” value turned out to be 0.
